The test system of one assay is phosphodiesterase. Put plainly: Phosphodiesterase inhibition. Further: test concentration or dose not given here. In kind it is biochemical.
Assay [1] is described as follows: Anti-inflammatory activity in in vivo animal testing.
A further assay has as its system adenyl cyclase. Put plainly: Inhibition of adenyl cyclase function. In kind it is biochemical.
Assay [2] is described as follows: Antihypertensive properties in in vivo animal testing.

Counter-ions that a name gives are not always drawn.

Results on 3 molecules are retold here after patent US4058659A, “6,8-Disubstituted purine derivatives of 9-β-D-ribofuranosyl 3',5'-cyclic phosphate” (ICN Pharmaceuticals, Inc., priority 1975, dated 1977).

Consider `O=P1(O)OC[C@H]2O[C@@H](n3c(SCc4ccccc4)nc4c(N5CCCCC5)ncnc43)[C@H](O)[C@@H]2O1` [Compound 16, 8-(Benzylthio)-6-piperidino-9-β-D-ribofuranosylpurine 3',5'-Cyclic Phosphate], for which the inhibition of phosphodiesterase entry with phosphodiesterase is reported as “inhibit phosphodiesterase markedly”. Also, in assay [1], the anti-inflammatory activity result is “displayed anti-inflammatory activity”. The “inhibition of adenyl cyclase function” value in the assay with adenyl cyclase is listed as “inhibit adenyl cyclase function”.

`CC(=O)O[C@@H]1[C@@H]2OP(=O)(O)OC[C@H]2O[C@H]1n1c(Sc2ccc(Cl)cc2)nc2c(Cl)ncnc21` [Compound 33, 2'-O-Acetyl-6-chloro-8-(p-chlorophenylthio)-9-β-D-ribofuranosylpurine 3',5'-Cyclic Phosphate Sodium Salt]: the antihypertensive properties result in assay [2] is “displayed antihypertensive properties”. Further, the anti-inflammatory activity result in assay [1] is recorded as “displayed anti-inflammatory activity”.

`CCN(CC)c1ncnc2c1nc(N(CC)CC)n2[C@@H]1O[C@@H]2COP(=O)(O)O[C@H]2[C@H]1O` [Compound 11, 6,8-Bis-(diethylamino)-9-β-D-ribofuranosylpurine 3',5'-Cyclic Phosphate]: the antihypertensive properties result in assay [2] is listed as “displayed antihypertensive properties”. Moreover, the inhibition of phosphodiesterase result with phosphodiesterase is given as “inhibit phosphodiesterase markedly”. The “inhibition of adenyl cyclase function” value in the assay on adenyl cyclase was “inhibit adenyl cyclase function”.
